One data set deals with MraY/MurX (Mycolicibacterium smegmatis, UniProt A0R019). Put plainly: Substrate tolerance of MurX/MraY, P-60 of M. smegmatis. The conditions noted are these: P-60 of wild-type M. smegmatis (ATCC607). It counts as biochemical, Mycobacterium smegmatis.
Data set [1] has as its target T1, HyMurG (Hydrogenivirga sp. 128-5-R1-1, UniProt A8US35). Put plainly: Kinetic studies with HyMurG. The data set is classed as biochemical.
A further data set deals with M. tuberculosis (H37Rv). Briefly: MIC determination, M. tuberculosis. It counts as cell-based, Mycobacterium tuberculosis. To be noted: 7H9 containing OADC; 14 days.
In a further data set the target is MsmegMraY (Mycolicibacterium smegmatis, UniProt A0R019). Put plainly: biochemical. To be noted: for pIC50: read-out: IC50 MsmegMraY, HPLC-based method, average of two-three experiments. It counts as biochemical, Mycobacterium smegmatis.
In the next data set the test system is M. smegmatis (ATCC607). Put plainly: MIC determination, resazurin, M. smegmatis. It counts as cell-based, Mycobacterium smegmatis. To be noted: 7H9 with 0.5% tween 80, 3 days at 37 °C.
A further data set concerns the target MsmegMurG (Mycolicibacterium smegmatis, UniProt A0R016). Put plainly: biochemical. Further details: species or system Mycobacterium smegmatis. To be noted: read-out: IC50 MsmegMurG; HPLC-based method; average of two-three experiments.
Data set [2] concerns the target T1, HyMurG. Briefly: HPLC-based MurG assay, dose-response, HyMurG. The data set is classed as biochemical. To be noted: read-out: IC50 HyMurG; HPLC-based method; average of two-three experiments.
The conditions of data set [3]: cited from earlier work.
The subject of data set [4] is Vero cell.
For data set [5], the target named is T1, HyMurG. Briefly: UV-Vis-based MurG assay. It counts as biochemical. To be noted: 50–100 μM.
The subject of data set [6] is Vero cell. Put plainly: Cytotoxicity against Vero cells.
The next data set addresses T2, MurG of M. smegmatis (Mycolicibacterium smegmatis, UniProt A0R016).
T2 sequence (A0R016 1-385): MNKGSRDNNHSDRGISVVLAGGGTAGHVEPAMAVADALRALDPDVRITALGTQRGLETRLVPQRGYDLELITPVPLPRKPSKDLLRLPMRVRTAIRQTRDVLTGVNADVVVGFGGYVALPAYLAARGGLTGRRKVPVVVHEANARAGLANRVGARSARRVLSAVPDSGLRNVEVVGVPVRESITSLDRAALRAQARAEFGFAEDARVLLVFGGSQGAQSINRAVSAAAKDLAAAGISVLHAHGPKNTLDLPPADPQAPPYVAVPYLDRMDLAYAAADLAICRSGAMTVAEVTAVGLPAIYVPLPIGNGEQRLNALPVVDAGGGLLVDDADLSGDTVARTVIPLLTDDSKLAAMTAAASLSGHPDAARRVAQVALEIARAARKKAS
Put plainly: Kinetic studies of MurG of M. smegmatis. The conditions noted are these: P-60 of M. smegmatis; donor 8. It counts as biochemical, Mycobacterium smegmatis.

pIC50: −log10 of the molar value. Like-named read-outs stand apart in the source and are kept apart here.

MsmegMraY, sequence (A0R019 whole entry): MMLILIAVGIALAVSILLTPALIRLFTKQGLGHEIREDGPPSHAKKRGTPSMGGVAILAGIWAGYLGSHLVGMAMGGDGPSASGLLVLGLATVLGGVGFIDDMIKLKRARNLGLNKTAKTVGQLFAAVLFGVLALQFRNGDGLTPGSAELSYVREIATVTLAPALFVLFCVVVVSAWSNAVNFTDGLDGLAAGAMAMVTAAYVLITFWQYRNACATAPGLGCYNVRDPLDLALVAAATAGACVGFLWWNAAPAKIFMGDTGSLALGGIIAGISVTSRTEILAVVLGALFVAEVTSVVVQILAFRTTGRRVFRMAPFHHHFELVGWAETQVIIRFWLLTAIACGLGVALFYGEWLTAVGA
T1 sequence (A8US35 1-350): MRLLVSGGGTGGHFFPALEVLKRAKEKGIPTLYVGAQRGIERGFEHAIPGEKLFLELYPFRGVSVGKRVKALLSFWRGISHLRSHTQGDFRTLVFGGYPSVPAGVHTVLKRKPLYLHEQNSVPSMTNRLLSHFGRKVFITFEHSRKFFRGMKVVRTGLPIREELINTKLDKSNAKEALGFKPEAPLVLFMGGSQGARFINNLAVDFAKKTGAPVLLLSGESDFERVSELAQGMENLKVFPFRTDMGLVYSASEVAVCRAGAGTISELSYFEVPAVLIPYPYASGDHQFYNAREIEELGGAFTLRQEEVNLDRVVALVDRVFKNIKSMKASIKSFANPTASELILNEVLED
MraY/MurX, sequence (A0R019 whole entry): as the sequence (A0R019 whole entry) above

As for `C/C(=C/COP(=O)(O)O)CCCC(C)CCCC(C)CCCC(C)C` (centres unmarked) [(2Z)-phytyl phosphate], the “Formation of lipid I-N^ε-derivatives” value at MraY/MurX is given as “did not provide the corresponding lipid I derivatives”.
As to ristocetin A, on HyMurG [1] (ristocetin A 5 μM, Michaelis-Menten plots), the “Mode of HyMurG inhibition” value was “competes for the UDP-GlcNAc binding-site”. Also, the “M. tuberculosis (H37Rv) MIC” value in the data set with M. tuberculosis (H37Rv) turned out to be 0.5 µg/mL. In addition, the “Mode of MurX inhibition” value on MsmegMraY is “non-competitive inhibition against Park’s nucleotide and prenyl-P”. Further, the pIC50 at MsmegMraY is 6.09; on MsmegMurG it was 5.85; at HyMurG [2] it was 6.02. Also, the “M. smegmatis (ATCC607) MIC” value in the data set on M. smegmatis (ATCC607) was less than 0.39 µg/mL. Besides, the “Binding affinity, times less than that of vancomycin” value in data set [3] is “about 3.0 times”. In addition, the “Vero cell cytotoxicity IC50” value in the data set on Vero cell [4] is greater than 100 µg/mL.
Turning to tunicamycin, in the data set on M. tuberculosis (H37Rv), the “M. tuberculosis (H37Rv) MIC” value was 12.5 µg/mL. For the same compound, the “MurX activity after addition of inhibitor” value at MsmegMraY (50 μM, P-60, protocol B) is on record as “terminated completely”. The negative logarithm of the IC50 (pIC50) on MsmegMraY was 5.54; at MsmegMurG, less than 4.00; at HyMurG [2], less than 4.00. In addition, the “M. smegmatis (ATCC607) MIC” value with M. smegmatis (ATCC607) lay in the range of 6.25 to 12.5 µg/mL. For the same compound, at HyMurG [5], the “Inhibition of MurG function / lipid II formation” value is recorded as “did not inhibit”. The “Vero cell cytotoxicity IC50” value in the data set on Vero cell [6] was determined as 1.56 µg/mL.
As for “C55-lipid II-N^ε-C6-dansyl-FITC [Compound 9-C55]”, the “Vmax for 9-C55 transformation” value is 0.67 µM/min at HyMurG [1] (HyMurG, donor 8) and 0.56 µM/min at MurG of M. smegmatis.

Source of the values: PMC7286788 (ACS infectious diseases, 2019).
